Each structure is given as a SMILES string.

Experiment [1] relates to OX1. The note with it: cited from earlier work.
For experiment [2] the following is noted: administrated i.p.; cited from earlier work.
Experiment [3] addresses T1, human OX1 receptors (Homo sapiens, UniProt O43613).
T1 sequence (O43613 1-425): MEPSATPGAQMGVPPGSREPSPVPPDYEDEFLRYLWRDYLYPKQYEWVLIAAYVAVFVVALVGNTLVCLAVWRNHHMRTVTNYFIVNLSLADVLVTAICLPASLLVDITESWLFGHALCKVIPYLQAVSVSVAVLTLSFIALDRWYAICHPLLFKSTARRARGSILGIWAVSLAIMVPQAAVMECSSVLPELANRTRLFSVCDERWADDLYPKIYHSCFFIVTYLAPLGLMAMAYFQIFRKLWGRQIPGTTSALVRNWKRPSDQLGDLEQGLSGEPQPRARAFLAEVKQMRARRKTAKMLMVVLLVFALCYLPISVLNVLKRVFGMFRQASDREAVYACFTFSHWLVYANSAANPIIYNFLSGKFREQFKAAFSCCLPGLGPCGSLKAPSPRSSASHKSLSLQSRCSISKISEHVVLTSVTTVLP
Briefly: Calcium mobilization Ke assay. The experiment is classed as cell-based. In general terms: Calcium assays in cells follow changes in intracellular calcium, usually with a dye or a luminescent sensor.

Experiment [4] concerns Sprague-Dawley rats. The experiment can be described thus: Locomotor activity and acute cocaine-induced hyperactivity. The experiment is classed as in vivo, rat. To be noted: 10 mg/kg alone, i.p. (data not shown).

Consider `Cc1nc2ccc(NC(=O)Nc3ccnc4cccnc34)cc2o1` [SB-334867], for which, in experiment [1], the “affinity for OX1 higher than for OX2” value is on record as ~ 50 fold. Moreover, the “development of locomotor sensitization to cocaine” value in experiment [2] is “block the development of locomotor sensitization to cocaine”.

As to `CCCOc1ccc(CC2c3cc(OCCC)c(OC)cc3CCN2CC(=O)NCc2ccccc2)cc1OC` (stereo not shown) [Compound 73, N-Benzyl-2-{6-methoxy-1-[(3-methoxy-4-propoxyphenyl)methyl]-7-propoxy-1,2,3,4-tetrahydroisoquinolin-2-yl}acetamide], the “OX1 selectivity over the OX2 receptor” value in experiment [3] is above 620 fold. For the same compound, in experiment [4], the spontaneous activity entry was “did not significantly alter the spontaneous activity”.
